“Also recorded” adds a separate entry of the source.
How the values were obtained:
Type in all cases: cell-based, human
[1] = test system: MOLM-13 (MLL-AF9); assay: Combination proliferation study with Compound A2 (ATP/CellTiter-Glo, Chou-Talalay combination index)
Summary of the method: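 Viability by CellTiter-Glo ATP luminescence; Fa relative to DMSO controls. Combination index by Chou-Talalay (CI<1 synergy, =1 additive, >1 antagonism).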

[2] = test system: MV4-11 (MLL-AF4); assay: as above; conditions: for Combination of Compound A2 and anti-cancer agent, MV4-11: 7 Day Cotreatment; for Combination with Compound A2, MV4-111 MLL-AF4: Table 2, Example 3; for Combination with Compound A2, MV4-11 (MLL-AF4): 7 Day Cotreatment Model, Table 4
Description: The acute myelogenous leukemia cell lines MV4-11 (MLL-AF4) and MOLM-13 (MLL-AF9) were obtained from American Type Culture Collection (ATCC; Rockville, Md.) and Deutsche Sammlung von Mikroorganismen and Zellkulturen (DSMZ; Braunschweig, Germany) respectively.
(§1) Studies were performed using MLL-rearranged cell lines in vitro to evaluate the anti-proliferative effect of a combination of two agents together on cell growth. Initial proliferation studies were performed to determine the IC50 of a given compound in each cell line. The cell counts were measured by ATP quantitation using the Promega Cell Titer Glo kit and luminescence values corresponded to the amount of ATP in a given well.
Compounds were evaluated for synergy in the co-treatment phase by testing the compounds in a concentration range which was bracketed around their IC50 values. The compounds were plated to a 96 well plate in a matrix format (FIG. 3) which includes increasing concentrations of each drug in the combination in a constant ratio, in addition to the effect of each compound alone in the study. Cells were seeded and grown in the log-linear phase for 3 or 7 days in the co-treatment phase. Minimum inhibition (DMSO alone) controls were used in each plate to calculate fraction affected (Fa) of a test well. DMSO concentration was kept at 0.1% v/v.
The drug combination analysis was performed utilizing the Chou-Talalay method Synergy was determined using the software package Calcusyn by Biosoft. The combination index (CI) is a quantitative term used to describe the level of synergy or antagonism in a given test system. A combination index less than one indicates synergy, and a CI greater than one indicates antagonism. Further, strong synergism is achieved when the CI value falls below 0.3.
(§2) Graphs representing values of combination index (CI) versus Fractional effect (Fa) known as Fa-CI plots were generated and synergy was evaluated. Drug synergy was statistically defined by CI values less than 1, antagonism by CI>1 and additive effect by CI equal to 1.
as §2
(§3) The HP-D300 digital dispenser (Tecan) was used to dispense compounds in a combinatorial matrix. […] Cell viability was measured via ATP content using CellTiter-Glo® (Promega).
(§4) Viability was determined using CellTiter-Glo® (Promega).
as §1, with “Proliferation studies” for “Studies”, “MOLM-13, MV4-11 and SKM-1” for “MLL-rearranged”, “cancer cell killing” for “anti-proliferative”, “IC50 values” for “IC50”, “correspond” for “corresponded”
These studies were performed to evaluate both the combinatorial effect of compounds on cell killing and the durability of the effect by washing out one of the agents.
Compounds evaluated for synergy in the co-treatment phase were tested in a range which was bracketed around the IC50's. The compounds were plated to a 96 well plate in a matrix format which includes increasing concentrations of each drug in the combination in a constant ratio, in addition to the effect of each compound alone in the study.

[3] = test system: SKM-1 (non-MLL-rearranged AML); assay: as above; conditions: for Effect of Compound A2 on the antiproliferative activity of the second agent: SKM-1, non-MLL-rearranged, Example 5; for Combination with Compound A2, SKM-1 AML: Non-rearranged: Table 2, Example 3
Description: (§5) Graphs representing values of combination index (CI) versus Fractional effect (Fa) known as Fa-CI plots were generated and synergy was evaluated.
as §5, §3, §4
MV4-11 cells were maintained in IMDM supplemented with 10% fetal bovine serum. MOLM-13 and SKM-1 cells were maintained in Roswell Park Memorial Institute medium (RPMI) supplemented with 10% fetal bovine serum. They were cultured in flasks or plates in a humidified 5% CO2 atmosphere.
as §1, with “Proliferation studies” for “Studies”, “MOLM-13, MV4-11 and SKM-1” for “MLL-rearranged”, “cancer cell killing” for “anti-proliferative”, “IC50 values” for “IC50”, “correspond” for “corresponded”
Compounds evaluated for synergy in the co-treatment phase were tested in a range which was bracketed around the IC50's. The compounds were plated to a 96 well plate in a matrix format which includes increasing concentrations of each drug in the combination in a constant ratio, in addition to the effect of each compound alone in the study. Cells were seeded and grown in the log-linear phase for 3 or 7 days in the cotreatment phase. Maximum and minimum inhibition (DMSO alone) controls were used in each plate to calculate fraction affected (Fa) of a test well. DMSO concentration was kept at 0.1% v/v. The drug combination analysis was performed utilizing the Chou-Talalay method. Synergy was determined using the software package Calcusyn by Biosoft. The combination index (CI) is the term used to describe the level of synergy or antagonism in a given test system. A combination index less than one indicates synergy, and a CI greater than one indicates antagonism.
The drug combination analysis was performed using the Chou-Talalay method. Graphs representing values of combination index (CI) versus Fractional effect (Fa) known as Fa-CI plots were generated and synergy was evaluated.

[4] = test system: EOL-1 (MLL-PTD); assay: Combination proliferation study with Compound A2; conditions: Table 3, Example 3
Description: as §3, §4

[5] = test system: KOPM-88 (MLL-PTD); assay: Combination proliferation study with Compound A2; conditions: Table 3, Example 3
Description: as §3, §4

[6] = test system: MOLM-13 cells; assay: Apoptosis by Annexin V flow cytometry (Guava Nexin)
Description: (§6) A Guava EasyCyte HT™ flow cytometer was used to measure DNA content, Annexin V staining and cell surface expression of CD14 and CD11b markers on Days 10 and 14.
(§7) On Day 0 MOLM-13 cells are seeded at 3,000 cells/mL. On Day 7 and Day 10 MOLM-13 cells are counted and reseeded at 50,000 cells/mL. […] On Day 10 They were redosed again. On Day 14 the experiment was terminated. Cells were sampled for CD14 and CD11b analysis on Days 7, 10 and 14.
(§8) To evaluate the fraction of cells in each cell cycle, flow cytometric analysis was performed. FACS analysis for detection of cell death by apoptosis, and cell cycle was performed.
(§9) Cells were harvested on days 7, 10 and 14 and split to allow simultaneous analysis of cell cycle and Annexin V staining. Apoptosis was determined using the Guava Nexin Assay (Millipore 4500-0450) and cells were prepared according to the manufacturer's recommendations. Samples were analyzed using the Guava EasyCyte Plus System (Millipore). Cells for cell cycle analysis were pelleted by centrifugation at 200×g for 5 minutes at 4° C., washed twice with ice cold PBS then fixed with 70% ice cold ethanol. All samples were analyzed together at end of experiment. Following fixation cells were washed with PBS and stained with the Guava cell cycle reagent (Millipore 4500-0220) for 30 minutes. Samples were analyzed using the Guava EasyCyte Plus System (Millipore).

[7] = test system: MOLM-13 cells; assay: Cell cycle / sub-G1 flow cytometry; conditions: 156 nM Compound A2 plus 63 nM Ara-C, 10 and 14 days
Description: as §6, §7, §8, §9

[8] = 7 Day Cotreatment Model, Table 4

SMILES | Combination with Compound A2, MOLM-13 (MLL-AF9) [1, 8] | Combination with Compound A2, MOLM-13 (MLL-AF9) ([1]; Table 2, Example 3) | Combination of Compound A2 and anti-cancer agent, MV4-11 [2] | Combination with Compound A2, MV4-111 MLL-AF4 [2] | Effect of Compound A2 on the antiproliferative activity of the second agent [3] | Combination with Compound A2, EOL-1 (MLL-PTD) [4] | Combination with Compound A2, KOPM-88 (MLL-PTD) [5] | Combination with Compound A2, MV4-11 (MLL-AF4) [2] | further results
Nc1ccn([C@@H]2O[C@H](CO)[C@@H](O)[C@@H]2O)c(=O)n1 [Ara-C, cytarabine] | Strong Synergy | Synergy (Drug synergy was statistically defined by CI values less than 1) | Synergy (A combination index less than one indicates synergy) | Strong Synergy | did not affect | Synergy (Drug synergy was statistically defined by CI values less than 1) | Synergy (Drug synergy was statistically defined by CI values less than 1) |  | Combination of Compound A2 and anti-cancer agent, MOLM-13 ([1]; 4 + 3 Model: Compound A2 pretreatment 4 days, then co-treatment 3 days): Synergy (A combination index less than one indicates synergy); Combination of Compound A2 and anti-cancer agent, MOLM-13 ([1]; 7 Day Cotreatment): Synergy (A combination index less than one indicates synergy); Combination with Compound A2, reverse order of addition ([1]; MOLM-13, Ara-C 3 days, then cotreatment with Compound A2 7 days): Synergy; Combination with Compound A2, reverse order of addition with Ara-C washout ([1]; MOLM-13, Ara-C 3 days, washed out, then Compound A2 7 days): Combination benefit is maintained; Combination with Compound A2 when Compound A2 is washed out prior to the addition of the second agent ([1]; MOLM-13, pre-treatment model with Compound A2 washout): durable combination benefit; also recorded: synergistic anti-proliferative activity was maintained; Combination with Compound A2, MOLM-13 (MLL-AF9) ([1]; Table 2, Example 3, listed as cytarabine): synergistically; Combination with Compound A2 when Compound A2 is washed out prior to the addition of the second agent ([2]; MV4-11, pre-treatment model with Compound A2 washout): synergistic anti-proliferative activity was maintained; Combination with Compound A2, MV4-111 MLL-AF4 ([2]; listed as cytarabine): synergistically; Combination with Compound A2, SKM-1 AML: Non-rearranged ([3]; listed as cytarabine): did not act synergistically; Apoptosis, combination with Compound A2 ([6]; 156 nM Compound A2 plus 63 nM Ara-C): enhance apoptosis; Induction of apoptosis, single agent ([6]; 14 day treatment, 156 nM Compound A2 or 63 nM Ara-C): modest increase in apoptotic cell population; sub-G1 cell population, combination with Compound A2 [7]: significant increase in the population of sub-G1 cells
Nc1ncn([C@@H]2O[C@H](CO)[C@@H](O)[C@H]2O)c(=O)n1 [Azacitidine] | Strong Synergy | Synergy (Drug synergy was statistically defined by CI values less than 1) | Synergy (A combination index less than one indicates synergy) | Synergy (Drug synergy was statistically defined by CI values less than 1) |  | Synergy (Drug synergy was statistically defined by CI values less than 1) | Synergy (Drug synergy was statistically defined by CI values less than 1) | Synergy (Drug synergy was statistically defined by CI values less than 1) | Combination with Compound A2, MOLM-13 (MLL-AF9) ([1]; 7 Day Cotreatment Model, Table 4, listed as azacytidine): synergistically induce an anti-proliferative effect; also recorded: synergistic anti-proliferative activity; Combination with Compound A2, MV4-11 (MLL-AF4) ([2]; listed as azacytidine): synergistically induce an anti-proliferative effect; also recorded: synergistic anti-proliferative activity; Effect of Compound A2 on the antiproliferative activity of the second agent ([3]; listed as Azacytidine): not potentiated; Effect of Compound A2 on the antiproliferative activity of the second agent ([3]; listed as azacytidine): no impact
COc1cc2c(cc1-c1c(C)noc1C)ncc1[nH]c(=O)n([C@H](C)c3ccccn3)c12 [IBET-151] | Synergy (Drug synergy was statistically defined by CI values less than 1) | Synergy (Drug synergy was statistically defined by CI values less than 1) | Synergy (A combination index less than one indicates synergy) | Synergy (Drug synergy was statistically defined by CI values less than 1) |  |  |  |  | Combination with Compound A2, SKM-1 AML: Non-rearranged [3]: IC50 not achieved
C[C@]12C=CC(=O)C=C1CC[C@@H]1[C@@H]2[C@@H](O)C[C@@]2(C)[C@H]1CC[C@]2(O)C(=O)CO [Prednisolone] | Antagonistic (antagonism by CI>1) |  |  |  | enhanced antiproliferative activity |  |  | Antagonistic (antagonism by CI>1) | Combination with Compound A2, MOLM-13 (MLL-AF9) ([1]; 7 Day Cotreatment Model, Table 4, listed as prednisolone): antagonism; Combination with Compound A2, MV4-11 (MLL-AF4) ([2]; listed as prednisolone): antagonism

Source: patent publication US20200030355A1, “COMBINATION THERAPY FOR TREATING CANCER” (Epizyme, Inc., priority 2014, published 2020)
